Measured values reported in US5196447A, “Neristatin 1” (Arizona Board of Regents, a body Corporate of The State of …, priority 1991, dated 1993).
Values after ≈ are worked out from the molar mass of the structure shown.

Legend:
protein kinase C [1] = experiment: Competition for [26-3H] bryostatin 4 binding to protein kinase C (phosphatidylserine/TRITON X-100 mixed micelles)
protein kinase C [2] = experiment: Usual phorbol ester binding conditions using reconstitution of protein kinase C in phosphatidylserine
P388 cell line = experiment: Activity against the P388 lymphocytic leukemia cell line; assay type: cell-based, murine
[3] = Stability in recrystallization attempts / various solvents; assay type: physicochemical

COC(=O)C=C1CC2C=CC(C)(C)C(=O)C34OC(=O)CC3CC(CC(O)C(C)OC(=O)CC(O)CC3CC(OC(=O)C(C)(C)C)C(C)(C)C(O)(CC(C1)O2)O3)O4 (stereo not shown) [neristatin 1]
Ki (protein kinase C [1]; phosphatidylserine/TRITION X-100 mixed micelles, competition for [26-3H] bryostatin 4, neristatin 1: mean±SEM, 4 experiments): 124 ± 10 nM | affinity for protein kinase C compared with bryostatin 4 (protein kinase C [1]; relative to bryostatin 4): at least two orders of magnitude less | affinity for protein kinase C compared with phorbol 12,13-dibutyrate (protein kinase C [2]; relative to phorbol 12,13-dibutyrate): an order of magnitude less | Ki (protein kinase C [2]; usual phorbol ester binding conditions, reconstitution in phosphatidylserine, neristatin 1: mean±sem, 3 experiments): 21.2 ± 1.3 nM | IC50 (P388 cell line; Mus musculus, read-out: ED50 (the source's name)): 10 µg/mL (≈ 12.6 µM) | potency compared to bryostatin 5 (P388 cell line; relative to bryostatin 5): reduced but still significant potency | stability of small samples in various solvents [3]: rapidly degraded in various solvents
